The source of these data is patent US20220218679A1, “NOVEL COMPOUNDS AND PHARMACEUTICAL COMPOSITIONS THEREOF FOR THE TREATMENT OF INFLAMMATORY DISORDERS” (Galapagos NV, priority 2019, published 2022).

The structures appear in SMILES notation.

One data set concerns the target T1, human IRAK-4 (Homo sapiens, UniProt Q9NWZ3).
T1 construct: purchased Carna Biosciences 09 145
T1 sequence (Q9NWZ3 1-460): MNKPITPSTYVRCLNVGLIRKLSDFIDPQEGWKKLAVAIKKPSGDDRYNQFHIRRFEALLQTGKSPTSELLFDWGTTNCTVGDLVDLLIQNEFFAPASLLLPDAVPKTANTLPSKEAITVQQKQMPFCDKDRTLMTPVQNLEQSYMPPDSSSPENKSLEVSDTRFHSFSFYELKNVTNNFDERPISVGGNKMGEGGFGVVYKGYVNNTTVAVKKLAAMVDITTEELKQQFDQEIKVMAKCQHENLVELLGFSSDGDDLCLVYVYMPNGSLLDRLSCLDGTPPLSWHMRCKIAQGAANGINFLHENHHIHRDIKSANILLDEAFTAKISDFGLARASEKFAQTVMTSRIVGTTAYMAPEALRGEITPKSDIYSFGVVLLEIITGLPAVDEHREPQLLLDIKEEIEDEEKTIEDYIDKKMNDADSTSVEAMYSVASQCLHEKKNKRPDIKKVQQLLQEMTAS
As to the kind of experiment: Phosphorylation IC50 determination for human IRAK-4 (ADP-Glo kinase assay). In kind it is biochemical. The note with it: RIP140 substrate, Km ATP, read-out: IRAK4 IC50. As to the method: 3.1. Phosphorylation IC50 Determination for Human IRAK-4
The phosphorylation of the substrate RIP140 (SEQ IDi1) by IRAK4 at Km ATP was detected with the ADP-Glo Kinase Assay (Promega, Cat #V9103), a luminescent kinase assay which measures the ADP formed from a kinase reaction. (Zegzouti et al., 2009) In a second step the kinase reaction is terminated and all the remaining ATP was depleted. In a final step the ADP was converted into ATP and this newly synthesized ATP was measured by using a luciferase/luciferin reaction with a luminescent reader. The luminescent signal positively correlated with kinase activity, in particular kinase inhibition giving a decrease of the luminescent signal.
For the semi-automated assay, the positive control (100% inhibition) was prepared by diluting 10 mM staurosporine stock mixture (20 μL) in water (3.8 mL) and DMSO (180 μL), thus resulting in a […] staurosporine solution at 1% DMSO (final concentration after further dilution in the kinase reaction).
For the automated assay, no pre-dilution of the 10 mM staurosporine stock was made. 10 mM staurosporine was spotted directly in the assay plate using acoustic dispensing and complemented with DMSO to result in a similar final concentration as mentioned above.
For the semi-automated assay, the negative control (0% inhibition) was prepared by mixing water (3.8 mL) and DMSO (200 μL) resulting in a final concentration of 1% DMSO after further dilution in the kinase reaction. For the automated assay no pre-dilution of DMSO was done. 100% DMSO was spotted directly on the assay plate.
The assay buffer solution was prepared at a concentration corresponding to 5 fold the final (most diluted) assay concentration by mixing a solution of 125 mM TRIS pH 7.5+0.05% Triton X-100+2.5 mM EGTA (5.27 mL) with 1M MgCl2 (72 μL), 1M DTT (57.6 μL), and 200 mM MnCl2 (360 μL).
For example, for the semi-automated method, the enzyme-substrate mixture was prepared by mixing water (3999 μL), assay buffer solution (1380 μL), 1 mM RIP140 (138 μL—SEQ ID1), and 200 ng/mL IRAK 4 (3.45 μL Carna Biosciences, 09 145).
For semi-automated method, the ATP mixture was prepared at a concentration corresponding to 2.5 fold the final (most diluted) assay concentration of the semi-automated method and 1.5 fold the final (most diluted) assay concentration of the automated method. For example, for the semi-automated method, the ATP mixture was prepared by mixing water (4126 μL), assay buffer solution (1380 μL), and 10 mM ATP (13.80 μL).
The assay was performed either in a semi-automated or fully automated manner. The assay volume and the incubation time of the ADP detection were different accordingly the method used.
3.1.3.1. Semi-Automated Assay
The compounds were prepared as a serial dilution of 10 point dose responses with 1/5 dilution steps in 100% DMSO starting from 2 mM highest concentration, diluted 1/20 in water. 1 μL was transferred dry to the assay plates.
On each assay plate 32 wells of each control (positive & negative) were added, followed by 2 μL enzyme-substrate mixture.
The reaction was started by adding 2 μL diluted ATP (final concentration Km ATP) on the assay plates. Plates were centrifuged for a few seconds at 1000 rpm followed by an incubation at r.t. for 120 min.
The reactions were stopped and the unconsumed ATP was depleted by adding 5 μL ADP-glo Reagent (Promega, Cat #V9103) to the reaction. The plates were quickly centrifuged at 1000 rpm and incubated at r.t. for 40 min corresponding to full ATP depletion.
The ADP was converted back to ATP and luciferase and luciferin were introduced to detect ATP by adding 10 μL kinase detection reagent (Promega, Cat #V9103) to the reaction. The plates were centrifuged for a few seconds at 1000 rpm and incubated at r.t. for a further 30 min.
Luminescent read out was performed on an Envision luminescent reader (Perkin Elmer). […]
A general note: ADP-Glo first removes unused ATP, then detects ADP through luciferase.

The test system of the next data set is Human Hepatocyte. Description: Metabolic stability in hepatocytes (human). In kind it is in vitro ADME. The note with it: 1 μM test compound, cryopreserved human hepatocytes. As to the method:
4.6. Metabolic Stability in Hepatocytes
The aim of this assay is to determine the metabolic stability of the compound in hepatocytes (cryopreserved) of different species. Low hepatocyte stability may result in the formation of unwanted metabolites, high clearance, and therefore is not desirable.
The decrease in parent was assessed by measuring the percentage remaining by LC-MS/MS analysis.
A 10 mM stock solution of test compound in DMSO was first diluted in DMSO to 3 mM, and then in modified Krebs-Henseleit buffer (Sigma, K3753) to 5 μM. This compound dilution was added to a suspension of pooled cryopreserved hepatocytes (BioreclamationIVT) at 37° C. under gentle shaking.
Final reaction conditions were: 1 μM of test compound, 0.03% DMSO, 0.5 million viable hepatocytes/mL, and 75 μL incubation volume.
Testosterone (1 μM) and 7-hydroxycoumarin (1 μM) were used, respectively as phase I and phase II metabolic reaction controls.
After 0, 10, 20, 45, 90, 120 and 180 min of incubation, the reaction was terminated with 225 μL of MeCN:MeOH (2:1) containing 100 ng/mL of diclofenac as analytical internal standard. Samples were mixed, centrifuged and the supernatant analyzed by LC-MS/MS.
The instrument responses (ratios of test compound and internal standard peak areas) were referenced to the zero time point samples (considered as 100%) in order to determine the percentage of compound remaining.
Plots of percentage compound remaining were used to determine the intrinsic clearance in the hepatocyte incubations using the following equations:
Scaled Clint [L/h/kg]=Clint[μL/min/10^6 cells]*#(10^6) cells/g liver*60*( 1/10^6) Scaled Clint unbound [L/h/kg]=Clint [L/h/kg]/Fu,inc where: fu,inc equals hepatocyte binding, derived from microsomal binding (fu,mic) by following equation: […]

With `CC(C)(O)CCc1cc2cc(NC(=O)c3cccc(C(F)F)n3)c(C(N)=O)cn2n1` [Compound 20, 5-[[6-(difluoromethyl)pyridine-2-carbonyl]amino]-2-(3-hydroxy-3-methyl-butyl)pyrazolo[1,5-a]pyridine-6-carboxamide], the IC50 at human IRAK-4 lay within 0.1 to 5 nM. For the same molecule, the “Human Hepatocyte stability (Perc. remaining at 90 min)” value in the data set on Human Hepatocyte was 81.65 Perc.

In the case of `COc1cn2nc(CC(F)C(C)(C)O)cc2cc1NC(=O)c1cccn(C2CC2)c1=O` (single isomer, unassigned; enantiomer b) [Compound 26, 1-cyclopropyl-N-[2-(2-fluoro-3-hydroxy-3-methyl-butyl)-6-methoxy-pyrazolo[1,5-a]pyridin-5-yl]-2-oxo-pyridine-3-carboxamide Enantiomer B], the concentration for half-maximal inhibition (IC50) at human IRAK-4 is 10 to 50 nM. Moreover, the “Human Hepatocyte stability (Perc. remaining at 90 min)” value in the data set with Human Hepatocyte came out at 97.8 Perc.

As to `COc1c(NC(=O)c2cccn(C3CC3)c2=O)cc2cc(CCC(C)(C)O)nn2c1C` [Compound 13, 1-cyclopropyl-N-[2-(3-hydroxy-3-methyl-butyl)-6-methoxy-7-methyl-pyrazolo[1,5-a]pyridin-5-yl]-2-oxo-pyridine-3-carboxamide], the 50% inhibitory concentration (IC50) on human IRAK-4 was in the range of 10 to 50 nM. Also, the “Human Hepatocyte stability (Perc. remaining at 90 min)” value in the data set on Human Hepatocyte came to 98.45 Perc.

As to `CNC(=O)c1cn2nc(C3CCCS(=O)(=O)C3)cc2cc1NC(=O)c1cccc(C(F)(F)F)n1` (centres unmarked) [Compound 8, 2-(1,1-dioxothian-3-yl)-N-methyl-5-[[6-(trifluoromethyl)pyridine-2-carbonyl]amino]pyrazolo[1,5-a]pyridine-6-carboxamide], on human IRAK-4, the IC50 lay in the range of 0.1 to 5 nM. Further, the “Human Hepatocyte stability (Perc. remaining at 90 min)” value in the data set with Human Hepatocyte worked out at 107 Perc.

Take `COc1cn2nc(CCC(C)(C)O)cc2cc1NC(=O)c1cccc(C(F)(F)F)n1` [Compound 3, N-[2-(3-hydroxy-3-methylbutyl)-6-methoxypyrazolo[1,5-a]pyridin-5-yl]-6-(trifluoromethyl)pyridine-2-carboxamide]: at human IRAK-4, the IC50 fell in the range of 0.1 to 5 nM. The “Human Hepatocyte stability (Perc. remaining at 90 min)” value with Human Hepatocyte stood at 22.8 Perc.

Take `CNC(=O)c1cn2nc(CCC(C)(C)O)cc2cc1NC(=O)c1cccc(C(F)(F)F)n1` [Compound 5, 2-(3-hydroxy-3-methylbutyl)-N-methyl-5-[[6-(trifluoromethyl)pyridine-2-carbonyl]amino]pyrazolo[1,5-a]pyridine-6-carboxamide]: the IC50 at human IRAK-4 lay in the range of 0.1 to 5 nM. In the data set with Human Hepatocyte, the “Human Hepatocyte stability (Perc. remaining at 90 min)” value is 94.5 Perc.

`COc1cn2nc(CCC(C)(C)O)cc2cc1NC(=O)c1cccn(C2CC2)c1=O` [Compound 1, 1-cyclopropyl-N-[2-(3-hydroxy-3-methylbutyl)-6-methoxypyrazolo[1,5-a]pyridin-5-yl]-2-oxopyridine-3-carboxamide]: on human IRAK-4, the IC50 lay in the range of 0.1 to 5 nM. The “Human Hepatocyte stability (Perc. remaining at 90 min)” value in the data set on Human Hepatocyte amounted to 96.6 Perc.

In general, IC50 refers to the midpoint of a concentration-inhibition curve.
